How the values were obtained:
HER2 A775_G776insYVMA = HER2 A775_G776insYVMA (Homo sapiens (Human), UniProt P04626, INS775YVMA); assay: HTRF inhibitory activity against HER2 mutant enzyme; assay type: biochemical; settings: recombinant enzyme, 37° C. for 2 hours
In short: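 Recombinant HER2 A775_G776insYVMA preincubated with compound, then […] and biotinylated peptide ([…]) added; 2 h at 37 °C in Tris-HCl pH 7.5 buffer with MgCl2, DTT. HTRF detection (Eu anti-phosphotyrosine/streptavidin-XL665); IC50 from 7 concentrations.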

[1] = test system: Ba/F3 HER2 A775_G776insYVMA; assay: Growth inhibition of Ba/F3 HER2 mutant cells (CellTiter-Glo); assay type: cell-based; settings: Mus musculus, BaF3, 72 hours
In short: (§1)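 Ba/F3 cells carrying HER2 A775_G776insYVMA or G776delinsVC were seeded at 1,000 cells/well and dosed 24 h later at 0.01-10 μM (8 concentrations including 0). After 72 h, viability was read as cellular ATP by CellTiter-Glo luminescence, and IC50 values were calculated from the 8-point curves.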

Ba/F3 HER2 G776delinsVC = assay: as above; assay type: cell-based; settings: Mus musculus, BaF3, 72 hours
In short: as §1

EGFR A763_Y764insFHEA = EGFR A763_Y764insFHEA (Homo sapiens (Human), UniProt P00533, INS763FHEA); assay: HTRF inhibitory activity against EGFR mutant enzyme (EGFR A763_Y764insFHEA); assay type: biochemical; settings: recombinant enzyme, 37° C. for 2 hours
In short: (§2)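 IC50 was derived from 7 concentrations by HTRF: Eu-anti-pTyr and streptavidin-XL665 for 1 h at room temperature, with the 615/665 nm ratio read. The kinase reaction ran 2 h at 37 °C in Tris pH 7.5 buffer with ATP (stated 50 mM) and biotinylated peptide (0.5 mM). Enzyme was preincubated with compound before substrate was added.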

EGFR del19 = EGFR del19 (Homo sapiens (Human), UniProt P00533, DEL746-750); assay: HTRF inhibitory activity against EGFR mutant enzyme (EGFR del19); assay type: biochemical; settings: recombinant enzyme, 37° C. for 2 hours
In short: as §2

[2] = test system: Ba/F3 EGFR D770_N771insSVD; assay: Growth inhibition of Ba/F3 EGFR mutant cells (CellTiter-Glo); assay type: cell-based; settings: Ba/F3 EGFR-D770-N771ins_SVD, 72 hours
In short: (§3)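 Ba/F3 cells expressing either EGFR insertion mutant were seeded at 1,000 cells/well and dosed 24 h later at eight concentrations from 0 to 10 μM. After 72 h, viability was read by CellTiter-Glo ATP signal. IC50 (μM) was fitted from the eight-point curves.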

[3] = test system: Ba/F3 EGFR V769_D770insASV; assay: as above; assay type: cell-based; settings: 72 hours
In short: as §3

Sequence of EGFR del19 (P00533 other isoform, or with tags, fused parts or gaps del 1-668/del 746-750 limits assumed): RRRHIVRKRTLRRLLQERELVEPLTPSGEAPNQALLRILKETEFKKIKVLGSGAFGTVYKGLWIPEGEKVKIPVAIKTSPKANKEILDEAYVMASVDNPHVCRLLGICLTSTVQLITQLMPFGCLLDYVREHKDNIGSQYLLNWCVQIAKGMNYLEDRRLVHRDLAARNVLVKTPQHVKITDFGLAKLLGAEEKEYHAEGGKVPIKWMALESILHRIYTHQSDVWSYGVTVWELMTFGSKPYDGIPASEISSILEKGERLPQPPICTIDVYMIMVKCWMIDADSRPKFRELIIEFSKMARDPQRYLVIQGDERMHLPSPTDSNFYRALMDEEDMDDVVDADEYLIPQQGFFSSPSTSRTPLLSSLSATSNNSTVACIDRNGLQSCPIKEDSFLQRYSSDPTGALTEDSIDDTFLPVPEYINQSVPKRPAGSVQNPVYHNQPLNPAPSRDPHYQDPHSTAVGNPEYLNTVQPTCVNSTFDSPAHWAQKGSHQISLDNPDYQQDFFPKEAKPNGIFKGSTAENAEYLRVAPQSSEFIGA
Sequence of HER2 A775_G776insYVMA (P04626 other isoform, or with tags, fused parts or gaps del 1-675/ins YVMA behind 775 limits assumed): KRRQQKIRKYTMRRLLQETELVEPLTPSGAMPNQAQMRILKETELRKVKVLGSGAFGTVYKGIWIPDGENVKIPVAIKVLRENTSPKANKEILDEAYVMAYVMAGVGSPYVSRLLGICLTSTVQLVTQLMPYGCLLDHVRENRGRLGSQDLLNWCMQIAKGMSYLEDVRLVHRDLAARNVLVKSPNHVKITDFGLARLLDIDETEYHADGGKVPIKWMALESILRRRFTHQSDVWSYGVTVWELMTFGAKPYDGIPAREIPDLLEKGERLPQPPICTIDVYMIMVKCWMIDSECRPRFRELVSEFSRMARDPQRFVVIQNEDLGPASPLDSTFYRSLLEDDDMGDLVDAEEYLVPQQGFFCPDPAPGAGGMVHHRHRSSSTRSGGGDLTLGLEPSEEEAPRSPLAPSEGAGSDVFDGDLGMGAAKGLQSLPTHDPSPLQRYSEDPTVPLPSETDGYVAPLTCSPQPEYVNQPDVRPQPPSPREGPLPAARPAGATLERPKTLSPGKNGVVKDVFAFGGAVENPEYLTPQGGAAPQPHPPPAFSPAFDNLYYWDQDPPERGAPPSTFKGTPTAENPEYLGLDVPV
Sequence of EGFR A763_Y764insFHEA (P00533 other isoform, or with tags, fused parts or gaps del 1-694/ins FHEA behind 763 limits assumed): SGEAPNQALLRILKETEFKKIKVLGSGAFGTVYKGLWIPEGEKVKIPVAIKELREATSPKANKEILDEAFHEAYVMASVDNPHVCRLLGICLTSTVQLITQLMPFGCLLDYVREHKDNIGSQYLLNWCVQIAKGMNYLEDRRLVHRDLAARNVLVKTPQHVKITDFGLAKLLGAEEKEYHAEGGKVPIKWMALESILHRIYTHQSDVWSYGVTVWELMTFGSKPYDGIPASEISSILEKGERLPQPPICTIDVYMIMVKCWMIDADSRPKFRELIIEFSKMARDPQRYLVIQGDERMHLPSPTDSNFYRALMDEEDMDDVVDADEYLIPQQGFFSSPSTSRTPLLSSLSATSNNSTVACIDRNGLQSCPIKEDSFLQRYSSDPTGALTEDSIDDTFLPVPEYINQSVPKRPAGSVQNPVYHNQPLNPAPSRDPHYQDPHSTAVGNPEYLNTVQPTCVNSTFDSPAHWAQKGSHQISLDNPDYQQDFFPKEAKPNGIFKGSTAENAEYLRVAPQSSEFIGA

SMILES	IC50 (HER2 A775_G776insYVMA)	IC50 [1]	IC50 (Ba/F3 HER2 G776delinsVC)	IC50 (EGFR A763_Y764insFHEA)	IC50 (EGFR del19)	IC50 [2]	IC50 [3]
CC#CC(=O)Nc1cc(Nc2ncc(Cl)c(Nc3ccc(C)cc3N(C)S(C)(=O)=O)n2)c(OC)cc1N(C)CCN(C)C [Example 98, N-(5-((5-chloro-4-((4-methyl-2-(N-methylmethylsulfonamido)phenyl)amino)pyrimidin-2-yl)amino)-2-((2-(dimethylamino)ethyl)(methyl)amino)-4-methoxyphenyl) but-2-inamide]	53 nM	> 100 nM	< 10 nM	9 nM	< 1 nM	10 to 30 nM	10 to 30 nM
CC#CC(=O)Nc1cc(Nc2ncc(Cl)c(Nc3cccc4c3N(S(C)(=O)=O)CC4)n2)c(OC)cc1N(C)CCN(C)C [Example 96, N-(5-((5-chloro-4-((1-(methylsulfonyl)indolin-7-yl)amino)pyrimidin-2-yl)amino)-2-((2-(dimethylamino)ethyl)(methyl)amino)-4-methoxyphenyl) but-2-inamide]	87 nM	> 100 nM	< 10 nM	10 nM	1 nM	< 10 nM	< 10 nM
C=CC(=O)Nc1cc(Nc2ncc(Cl)c(Nc3cccc(Cl)c3N(C)S(C)(=O)=O)n2)c(OC)cc1N(C)CCN(C)C [Example 35, N-(5-((5-chloro-4-((3-chloro-2-(N-methylmethylsulfonamido)phenyl)amino)pyrimidin-2-yl)amino)-2-((2-(dimethylamino)ethyl)(methyl)amino)-4-methoxyphenyl)acrylamide]	27 nM	50 to 100 nM	< 10 nM	3 nM	< 1 nM	30 to 50 nM	30 to 50 nM
C=CC(=O)Nc1cc(Nc2ncc(Cl)c(Nc3ccccc3N(C)C(C)=O)n2)c(OC)cc1N(C)CCN(C)C [Example 89, N-(5-((5-chloro-4-((2-(N-methylacetamido)phenyl)amino)pyrimidin-2-yl)amino)-2-((2-(dimethylamino)ethyl)(methyl)amino)-4-methoxyphenyl)acrylamide]	479 nM	> 100 nM	10 to 30 nM	77 nM	20 nM	30 to 50 nM	30 to 50 nM
C=CC(=O)Nc1cc(Nc2ncc(Cl)c(Nc3ccc(C)cc3N(C)C(C)=O)n2)c(OC)cc1N(C)CCN(C)C [Example 87, N-(5-((5-chloro-4-((4-methyl-2-(N-methylacetamido)phenyl)amino)pyrimidin-2-yl)amino)-2-((2-(dimethylamino)ethyl)(methyl)amino)-4-methoxyphenyl)acrylamide]	107 nM	> 100 nM	< 10 nM	24 nM	4 nM	30 to 50 nM	30 to 50 nM
C=CC(=O)Nc1cc(Nc2ncc(Cl)c(Nc3ccccc3NS(C)(=O)=O)n2)c(OC)cc1N(C)CCNC(C)C [Example 24, N-(5-((5-chloro-4-((2-(methylsulfonamido)phenyl)amino)pyrimidin-2-yl)amino)-2-((2-(isopropylamino)ethyl)(methyl)amino)-4-methoxyphenyl)acrylamide]	27 nM	> 100 nM	10 to 30 nM	3 nM	< 1 nM	> 100 nM	> 100 nM
C=CC(=O)Nc1cc(Nc2ncc(Cl)c(Nc3cccc(C)c3NC(C)=O)n2)c(OC)cc1N(C)CCN(C)C [Example 86, N-(5-((4-((2-acetamido-3-methylphenyl)amino)-5-chloropyrimidin-2-yl)amino)-2-((2-(dimethylamino)ethyl)(methyl)amino)-4-methoxyphenyl)acrylamide]	157 nM	> 100 nM	< 10 nM	20 nM	2 nM	30 to 50 nM	30 to 50 nM
C=CC(=O)Nc1cc(Nc2ncc(Cl)c(Nc3ccc(C)c(C)c3NC(C)=O)n2)c(OC)cc1N(C)CCN(C)C [Example 84, N-(5-((4-((2-acetamido-3,4-dimethylphenyl)amino)-5-chloropyrimidin-2-yl)amino)-2-((2-(dimethylamino)ethyl)(methyl)amino)-4-methoxyphenyl)acrylamide]	52 nM	> 100 nM	< 10 nM	3 nM	1 nM	30 to 50 nM	30 to 50 nM

Compounds with a lower IC50 (HER2 A775_G776insYVMA), results first:

IC50 (HER2 A775_G776insYVMA)	IC50 [1]	IC50 (Ba/F3 HER2 G776delinsVC)	IC50 (EGFR A763_Y764insFHEA)	IC50 (EGFR del19)	IC50 [2]	IC50 [3]	SMILES
4 nM	30 to 50 nM	< 10 nM	1 nM	< 1 nM	30 to 50 nM	30 to 50 nM	C=CC(=O)Nc1cc(Nc2ncc(Cl)c(Nc3cccc(CC)c3NS(C)(=O)=O)n2)c(OC)cc1N(C)CCN(C)C [Example 40, N-(5-((5-chloro-4-((3-ethyl-2-(methylsulfonamido)phenyl)amino)pyrimidin-2-yl)amino)-2-((2-(dimethylamino)ethyl)(methyl)amino)-4-methoxyphenyl)acrylamide]
< 1 nM	< 10 nM	< 10 nM	< 1 nM	< 1 nM	< 10 nM	< 10 nM	C=CC(=O)Nc1cc(Nc2ncc(Cl)c(Nc3cccc4c3N(S(C)(=O)=O)CC4)n2)c(OC)cc1N(C)CCN(C)C [Example 55, N-(5-((5-chloro-4-((1-(methylsulfonyl)indolin-7-yl)amino)pyrimidin-2-yl)amino)-2-((2-(dimethylamino)ethyl)(methyl)amino)-4-methoxyphenyl)acrylamide]
20 nM	50 to 100 nM	< 10 nM	7 nM	3 nM	50 to 100 nM	50 to 100 nM	C=CC(=O)Nc1cc(Nc2ncc(Cl)c(Nc3cccc4c3N(S(C)(=O)=O)CCC4)n2)c(OC)cc1N(C)CCNC [Example 48, N-(5-((5-chloro-4-((1-(methylsulfonyl)-1,2,3,4-tetrahydroquinolin-8-yl)amino)pyrimidin-2-yl)amino)-4-methoxy-2-(methyl(2-(methylamino)ethyl)amino)phenyl)acrylamide]
10 nM	50 to 100 nM	10 to 30 nM	1 nM	< 1 nM	10 to 30 nM	10 to 30 nM	C=CC(=O)Nc1cc(Nc2ncc(Cl)c(Nc3cccc(C)c3NS(C)(=O)=O)n2)c(OC)cc1N(C)CCN(C)C [Example 36, N-(5-((5-chloro-4-((3-methyl-2-(methylsulfonamido)phenyl)amino)pyrimidin-2-yl)amino)-2-((2-(dimethylamino)ethyl)(methyl)amino)-4-methoxyphenyl)acrylamide]
19 nM	10 to 30 nM	< 10 nM	3 nM	1 nM	10 to 30 nM	10 to 30 nM	C=CC(=O)Nc1cc(Nc2ncc(C#N)c(Nc3cccc4c3N(C(C)=O)CC4)n2)c(OC)cc1N(C)CCN(C)C [Example 99, N-(5-((4-((1-acetylindolin-7-yl)amino)-5-cyanopyrimidin-2-yl)amino)-2-((2-(dimethylamino)ethyl)(methyl)amino)-4-methoxyphenyl)acrylamide]
6 nM	< 10 nM	< 10 nM	1 nM	< 1 nM	< 10 nM	< 10 nM	C=CC(=O)Nc1cc(Nc2ncc(Cl)c(Nc3cccc4c3N(C(C)=O)CC4)n2)c(OC)cc1N(C)CCN(C)C [Example 91, N-(5-((4-((1-acetylindolin-7-yl)amino)-5-chloropyrimidin-2-yl)amino)-2-((2-(dimethylamino)ethyl)(methyl)amino)-4-methoxyphenyl)acrylamide]

— patent publication US20240343694A1, “PYRIMIDINE DERIVATIVE, METHOD FOR PREPARING SAME, AND PHARMACEUTICAL COMPOSITION FOR PREVENTING OR TREATING CANCER COMPRISING SAME AS ACTIVE INGREDIENT” (KOREA RESERARCH INSTITUTE OF CHEMICAL TECHNOLOGY, priority 2021, published 2024)
